What was measured:
aldose reductase [1] = target: T1, aldose reductase (Bos taurus, UniProt P16116); experiment: in vitro inhibition of partially purified aldose reductase isolated from bovine lenses (spectrophotometric); type: biochemical; details: read-out: IC50 in the in vitro test
T1 construct: isolated in known manner from bovine lenses; from tissue; host or cells: bovine lenses
Source text: Thus, in a standard procedure partially purified aldose reductase is isolated in known manner from bovine lenses. The percentage inhibition of this enzyme's ability in vitro to catalyse the reduction of aldoses to polyhydric alcohols, and particularly to reduce glucose or sorbitol, caused by a test compound can then be determined using standard spectrophotometric methods.

aldose reductase [2] = target: T2, aldose reductase (Rattus norvegicus, UniProt P07943); experiment: in vivo inhibition of aldose reductase in streptozotocin diabetic rats (residual sorbitol levels in eye lenses and/or sciatic nerves); details: dosed daily for one, two or five days, read-out: ED50 in the in vivo test
T2 construct: the eye lenses and/or sciatic nerves are removed; from tissue; host or cells: rat eye lenses and/or sciatic nerves (in vivo, streptozotocin-diabetic rats)
Procedure: Rats are made diabetic (as evidenced by severe glucosuria being present) by dosing with streptozotocin. The animals are then dosed daily with the test compound for one, two or five days. The animals are then sacrificed 2-6 hours after the final dose and the eye lenses and/or sciatic nerves are removed. After a standard work-up procedure the residual sorbitol levels in each tissue are determined by gas liquid chromatography after conversion to the polytrimethylsilyl derivatives. Inhibition of aldose reductase in vivo can then be assessed by comparing the residual sorbitol levels in tissues from the dosed diabetic group of rats with those of an undosed group of diabetic rats and an undosed, normal group of rats.

IC50 (aldose reductase [1]): 54 nM | ED50 (aldose reductase [2]): 2.1 mg/kg
SMILES: O=[N+]([O-])CS(=O)(=O)c1cccs1 [Example 1, 2-(nitromethylsulphonyl)thiophene]

— patent publication US5102905A, “Thienyl benzothienyl and dibenzothienyl compounds as inhibitors of aldose reductase” (Imperial Chemical Industries PLC, priority 1988, dated 1992)
